Paper PMC2728764 (ACS chemical biology, 2008)

Assays:
AdmJ = assay: ATP-[…]PPi exchange assay; format: biochemical, Pantoea agglomerans; settings: 5 mM ATP, 1 mM PPi, 10 mM MgCl2, 5 mM TCEP, 75 mM Tris pH 7.5, RT
AdmH = AdmH (Pantoea agglomerans, UniProt Q84FL5); assay: chiral radio-HPLC; format: biochemical; settings: labelled compound ([14C]-L-Phe, 100 µM); 20 mM tricine pH 8.25, 30 °C

- Km (AdmJ): 130 ± 34 µM
Compound: N[C@@H](CC(=O)O)c1ccccc1 [(S)-β-Phe]
- chiral radio-HPLC (AdmH): The β-Phe generated by AdmH was found to be solely (S)-β-Phe
